Reference: PubChem BioAssay (NCI)
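Each compound was tested at five concentrations against cells in 96-well plates for 48 hours. Here, GI50 denotes the concentration required for 50% inhibition of growth. The concentration for full growth arrest is given as TGI.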 Where a SMILES comes first, the peptide text is derived from it. Bridges are numbered along the chain shown (N, C = ends). Roman numbers before positions name the chains, in order. [ ]: non-standard residue; d: D form. The star is where a group is joined. Heptadecanoyl = CCCCCCCCCCCCCCCCC(=O)*; Phg = N[CH](C(=O)O)c1ccccc1

Tests used:
Experiment in all cases: NCI tumour cell line growth inhibition, 48 h
CAKI-1 renal = test system: CAKI-1 renal
HT29 colon = test system: HT29 colon
NCI/ADR-RES ovarian = test system: NCI/ADR-RES ovarian
OVCAR-4 ovarian = test system: OVCAR-4 ovarian
T-47D breast = test system: T-47D breast

Structure (SMILES) | TGI (CAKI-1 renal) [µM] | TGI (HT29 colon) [µM] | TGI (NCI/ADR-RES ovarian) [µM] | TGI (OVCAR-4 ovarian) [µM] | TGI (T-47D breast) [µM] | GI50 (CAKI-1 renal) [µM] | GI50 (HT29 colon) [µM] | GI50 (NCI/ADR-RES ovarian) [µM] | GI50 (OVCAR-4 ovarian) [µM] | GI50 (T-47D breast) [µM]
CC(=O)OCC1OC(OC2CC3C(C)(C)C(=O)CC[C@]3(C)C3CC[C@]45C[C@]4(CCC5[C@@H](C)CC(O)C(O)C(C)(C)O)[C@]23C)C(O)C(O)C1O (stereo partly specified) | 31.1 | 16.7 | 32.8 | 25.7 | 18.8 |  |  |  |  | 
CN(C)C1COC2Cc3ccccc3C1O2 (stereo unspecified) | > 100 | > 100 | > 100 | > 100 | > 100 |  |  |  |  | 
O=C(NO)c1ccc(OCc2ccccc2)cc1 | 54.2 | > 100 | 32.1 | 75 | 81.5 |  |  |  |  | 
CC[C@@H]1C[C@@H](O)[C@@H]2[C@H](O)[C@H](O)CN2C1 | > 100 | > 100 | > 100 | > 100 | > 100 |  |  |  |  | 
O=C1c2ccc3ccccc3c2CCC1N1CCCCC1 (stereo unspecified) | 29.5 | 39 | 46.3 | 30.2 | 54.3 |  |  |  |  | 
CN(C)CC1CN(C(=O)Nc2ccccc2)C(=N)O1 (stereo unspecified) | > 100 | > 100 | > 100 | > 100 | > 100 |  |  |  |  | 
Cc1c(C)c(C)c(CSC(=N)N)c(C)c1C | 25.8 | 25.6 | 30.6 | 33.2 | 36.6 |  |  |  |  | 
COC(=O)c1cc(/C=C2\Cc3cc4c(cc3C2=O)CCC4)cc2c1CCC2 | > 100 | > 100 | > 100 | > 100 | > 100 |  |  |  |  | 
COc1cc(OC)nc(NC(=O)NS(=O)(=O)c2cccc3ncn(C)c(=O)c23)n1 | > 100 | > 100 | > 100 | > 100 | > 100 |  |  |  |  | 
CC1(C)OC([C@H](O)CO)C([C@H]2NCCS2)O1 (stereo partly specified) | > 100 | > 100 | > 100 | > 100 | > 100 |  |  |  |  | 
Cc1cc(-c2ccc(Cl)cc2)c(C#N)c(=S)n1C1OC(CO)C(O)C(O)C1O (stereo unspecified) | > 100 | > 100 | > 100 | > 100 | > 100 |  |  |  |  | 
CC1CC(=O)NC2CC1C2(C)C (stereo unspecified) |  | > 100 |  | > 100 | > 100 |  |  |  |  | 
CCCCCCCCCCCCCCCCC(=O)N1CCCC1C(=O)NCC(=O)NC(C(=O)N1CCCC1C(=O)NC(CO)C(=O)NC(Cc1ccc(O)cc1)C(=O)NC(CCCCNC(=O)C1CCCN1C(=O)C(CCCCN)NC(=O)C(CCCCN)NC(=O)C(CCCCN)NC(=O)C(CCCNC(=N)N)NC(=O)C(CCCCN)NC(=O)C(N)C(C)C)C(=O)NC(CC(C)C)C(=O)NC(CCCNC(=N)N)C(=O)N1CCCC1C(=O)NCC(N)=O)c1ccccc1 (stereo unspecified) (I: Heptadecanoyl-PG[Phg]PSYKLRPG-NH2 / II: H-VKRKKKP; amide I:7-II:C; configuration not given here) | 47.7 | > 100 | 84 | > 100 | 70.7 | 22.9 | 29.6 | 26.2 | 46.9 | 5.38
O=C1/C(=C/c2ccc(O)cc2)CCc2ccccc21 | 91.5 | 45 | 44.8 | > 74.5 | > 100 |  |  |  |  | 
CC1(C)CC[C@]2(C(=O)O)CC[C@]3(C)C(=CC[C@@H]4[C@@]5(C)CC[C@@H]6OC(C)(C)OC[C@@]6(C)[C@@H]5CC[C@]43C)[C@H]2C1 |  | 18.8 | > 100 | > 100 | 38.8 |  |  |  |  | 
O=C(O)CCCC#CCCCC(=O)O | > 100 | > 100 | > 100 | > 100 | > 100 |  |  |  |  | 
CN(C)C(=S)SCc1ccccc1 | > 100 | > 100 | > 100 |  | 60.6 |  |  |  |  | 
COc1cc(C2c3cc4c(cc3OC(O)C2C)OCO4)cc(OC)c1O (stereo unspecified) | > 100 | > 63.3 | 23.4 | > 100 | > 68.6 |  |  |  |  | 
CC(C)C(/C=C/c1ccc(Cl)cc1)=N\NC(=S)NN | > 100 | > 100 | 48.1 |  | > 100 |  |  |  |  | 
O=C1c2cccnc2-c2nccc3ccnc1c23 | 1.32 | 2.09 |  | 5.46 | 1.77 |  |  |  |  | 
CC1OC2OC3C(OCC(O)C3O)OC(=O)[C@]34CCC(C)(C)CC3C3=CCC5[C@@]6(C)C[C@H](O)[C@H](OC7OC(CO)C(O)C(O)C7OC7OC(COC(=O)CC(C)(O)CC(=O)OC1C(O)C2O)C(O)C(O)C7O)[C@@](C)(CO)C6CC[C@@]5(C)[C@]3(C)CC4 (stereo partly specified) | 2.74 | 3.18 | 11.9 | 3.15 | 7.23 |  |  |  |  | 
CO[C@H]1C[C@H](O[C@H]2CC[C@]3(C=O)[C@H]4CC[C@]5(C)[C@@H](C6=CC(=O)OC6)CC[C@]5(O)[C@@H]4CC[C@]3(O)C2)O[C@H](C)[C@H]1O[C@@H]1O[C@H](CO[C@@H]2O[C@H](CO)[C@@H](O)[C@H](O)[C@H]2O)[C@@H](O)[C@H](O)[C@H]1O | 0.0456 | 0.188 | 0.15 | 0.144 | 0.385 |  |  |  |  | 
O=C1CCC2(c3ccc(F)cc3)Nc3ncncc3N12 (stereo unspecified) |  | > 10 | > 10 | > 10 |  |  |  |  |  | 
CC1=C/C(=C(/c2ccc(O)c(C)c2)c2ccccc2C(=O)O)C=CC1=O | 32 | 42.8 | 80.5 | 33.9 | 72.1 |  |  |  |  | 
CC(=O)O[C@H]1C(=O)[C@@]2(C)[C@H]([C@H](OC(=O)c3ccncc3)[C@]3(O)C[C@H](OC(=O)[C@H](O)[C@@H](NC(=O)c4ccccc4)c4ccccc4)C(C)=C1C3(C)C)[C@]1(OC(C)=O)CO[C@@H]1C[C@@H]2O | > 25 | > 25 | > 25 | > 25 | > 25 |  |  |  |  | 
CCCCC/C(=N\c1nc[nH]c1C(N)=O)OCC | > 100 | > 100 | > 100 | > 100 |  |  |  |  |  | 
Nc1nc(Cl)cc(NCC2(CO)CC(Cc3ccccc3)C2)n1 (stereo unspecified) | > 100 | > 72.4 | 65.5 | > 100 | > 65.4 |  |  |  |  | 
CCOC(=O)c1cc(C2(OC)CCN(Cc3ccccc3)C2=O)c(-c2cc(C)no2)[nH]1 (stereo unspecified) | > 100 | > 100 | > 100 | > 100 | > 100 |  |  |  |  | 
Cc1ccc(C(=O)Nc2ccc(CP(=O)(O)O)cc2)cc1NC(=O)Nc1cc(C(=O)Nc2ccc(CP(=O)(O)O)cc2)ccc1C | > 100 | > 100 | > 100 | > 100 | > 100 |  |  |  |  | 
N#C/C(N)=C(\C#N)N=CNc1ccccc1N | > 100 | > 100 | > 100 | > 100 | > 100 |  |  |  |  | 
